Experimental data as given in ChEMBL document CHEMBL1137063, “The impact of spacer structure on 5-HT7 and 5-HT1A receptor affinity in the group of long-chain arylpiperazine ligands” (Bioorg Med Chem Lett, 2004).
pKi: −log10 of the molar value.

Legend:
[1] = molecular target: T1, 5-hydroxytryptamine receptor 1A (Rattus norvegicus, UniProt P19327); test: In vitro ability to displace the radioligand [3H]-OH-DPAT from binding to rat 5-hydroxytryptamine 1A receptor
T1 sequence (P19327 whole entry): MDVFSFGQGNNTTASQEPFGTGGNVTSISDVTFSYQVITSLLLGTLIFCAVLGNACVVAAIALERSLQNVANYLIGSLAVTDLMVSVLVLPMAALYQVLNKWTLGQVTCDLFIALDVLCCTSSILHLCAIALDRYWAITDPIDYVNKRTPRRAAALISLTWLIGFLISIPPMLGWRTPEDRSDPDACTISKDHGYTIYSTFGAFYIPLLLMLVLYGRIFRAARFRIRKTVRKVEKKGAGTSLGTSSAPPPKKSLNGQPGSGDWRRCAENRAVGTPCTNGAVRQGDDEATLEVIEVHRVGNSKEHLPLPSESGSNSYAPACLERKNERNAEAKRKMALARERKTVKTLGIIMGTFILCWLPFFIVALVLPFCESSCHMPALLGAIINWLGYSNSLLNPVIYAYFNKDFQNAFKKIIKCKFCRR

[2] = molecular target: 5-hydroxytryptamine receptor 7 (Rattus norvegicus, UniProt P32305); test: In vitro ability to displace the radioligand [3H]5-CT from binding to rat 5-hydroxytryptamine 7 receptor
5-hydroxytryptamine receptor 7, sequence (P32305 whole entry): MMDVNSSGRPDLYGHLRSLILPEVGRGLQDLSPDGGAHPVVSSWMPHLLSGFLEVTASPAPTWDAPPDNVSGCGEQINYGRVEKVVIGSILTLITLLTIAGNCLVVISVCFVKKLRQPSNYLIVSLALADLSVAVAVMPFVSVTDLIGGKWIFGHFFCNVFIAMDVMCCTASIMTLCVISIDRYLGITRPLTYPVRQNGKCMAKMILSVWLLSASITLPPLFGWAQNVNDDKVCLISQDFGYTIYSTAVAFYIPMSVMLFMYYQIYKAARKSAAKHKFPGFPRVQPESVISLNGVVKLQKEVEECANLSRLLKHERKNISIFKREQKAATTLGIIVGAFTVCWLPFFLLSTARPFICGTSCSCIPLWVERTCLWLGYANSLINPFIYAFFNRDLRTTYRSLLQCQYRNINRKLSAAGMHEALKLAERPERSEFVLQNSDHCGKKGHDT

Structure (SMILES)	pKi [1]	pKi [2]
COc1ccccc1N1CCN(Cc2ccccc2CN2C(=O)CCC2=O)CC1	6.38	6.04
COc1ccccc1N1CCN(Cc2ccccc2CN2C(=O)c3ccccc3C2=O)CC1	6.39	6.44
COc1ccccc1N1CCN(C/C=C/CN2C(=O)c3ccccc3C2=O)CC1	8.30	7.44
COc1ccccc1N1CCN(C/C=C\CN2C(=O)CCC2=O)CC1	6.80	6.10
COc1ccccc1N1CCN([C@H]2CC[C@H](N3C(=O)CCC3=O)CC2)CC1	7.82	4.94
COc1ccccc1N1CCN(C/C=C\CN2C(=O)c3ccccc3C2=O)CC1	7.11	6.45
COc1ccccc1N1CCN(C/C=C/CN2C(=O)CCC2=O)CC1	7.54	7.20
COc1ccccc1N1CCN([C@H]2CC[C@H](N3C(=O)c4ccccc4C3=O)CC2)CC1	8.10	5.69
